“And” between values parts separate entries of the source, which are not always exact repeats. Equal values may be shown once. Inconclusive results and toxic doses are left out.
Test system: BDF1 mice, P388 leukemia ip, median survival T/C
Experiment: NCI In Vivo Anticancer Drug Screen. Data for tumor model P388 Leukemia (intraperitoneal) in B6D2F1 (BDF1) mice
Details: endpoint: median survival time, higher = longer survival
Summary of the method: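 Each value expresses how treatment altered survival: treated-mouse outcome over vehicle-mouse outcome, both groups bearing the transplanted tumour.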

[1] = dose: 100.0 mg/kg/injection, schedule: Q04DX003 (ip), vehicle: saline
[2] = dose: 400.0 mg/kg/injection, schedule: Q04DX003 (ip), vehicle: saline
[3] = dose: 200.0 mg/kg/injection, schedule: Q04DX003 (ip), vehicle: saline
[4] = dose: 100.0 mg/kg/injection, schedule: Q04DX003 (ip), vehicle: saline with Tween-80
[5] = dose: 200.0 mg/kg/injection, schedule: Q04DX003 (ip), vehicle: saline with Tween-80
[6] = dose: 100.0 mg/kg/injection, schedule: Q01DX009 (ip), vehicle: saline with Tween-80
[7] = dose: 200.0 mg/kg/injection, schedule: Q01DX009 (ip), vehicle: saline with Tween-80
[8] = dose: 400.0 mg/kg/injection, schedule: Q04DX003 (ip), vehicle: saline with Tween-80

For `O=NN(CCBr)C(=O)NCCBr`, the T/C (dose: 30.0 mg/kg/injection, schedule: Q01DX009 (ip), vehicle: gum acacia) was 158 % of control, the T/C (dose: 44.0 mg/kg/injection, schedule: Q01DX009 (ip), vehicle: gum acacia) was 158 % of control and the T/C (dose: 50.0 mg/kg/injection, schedule: Q01DX009 (ip), vehicle: gum acacia) was 196 % of control. For the same compound, the T/C (dose: 67.0 mg/kg/injection, schedule: Q01DX009 (ip), vehicle: gum acacia) was 169 % of control and 191 % of control, the T/C (dose: 67.0 mg/kg/injection, schedule: Q04DX003 (ip), vehicle: gum acacia) was 165 % of control and the T/C (dose: 100.0 mg/kg/injection, schedule: Q01DX009 (ip), vehicle: Klucel (hydroxypropylcellulose) (HPC)) was 112 % of control. For the same compound, the T/C (dose: 100.0 mg/kg/injection, schedule: Q01DX009 (ip), vehicle: gum acacia) was 192 % of control and 200 % of control, the T/C (dose: 100.0 mg/kg/injection, schedule: Q04DX003 (ip), vehicle: gum acacia) was 173 % of control and the T/C [1] was 118 % of control. The T/C (dose: 150.0 mg/kg/injection, schedule: Q01DX009 (ip), vehicle: gum acacia) was 226 % of control, the T/C (dose: 150.0 mg/kg/injection, schedule: Q04DX003 (ip), vehicle: gum acacia) was 230 % of control and the T/C (dose: 200.0 mg/kg/injection, schedule: Q01DX009 (ip), vehicle: Klucel (hydroxypropylcellulose) (HPC)) was 154 % of control. The T/C (dose: 400.0 mg/kg/injection, schedule: Q01DX009 (ip), vehicle: Klucel (hydroxypropylcellulose) (HPC)) was 170 % of control and the T/C [2] was 190 % of control.
With `O=C(Oc1ccc([N+](=O)[O-])cc1)c1ccc(C[P+](c2ccccc2)(c2ccccc2)c2ccccc2)cc1` the T/C (dose: 100.0 mg/kg/injection, schedule: Q01DX009 (ip), vehicle: saline) was 109 % of control, the T/C [1] was 104 % of control and the T/C (dose: 200.0 mg/kg/injection, schedule: Q01DX009 (ip), vehicle: saline) was 100 % of control. For the same compound, the T/C [3] was 100 % of control, the T/C (dose: 400.0 mg/kg/injection, schedule: Q01DX009 (ip), vehicle: saline) was 100 % of control and the T/C [2] was 95 % of control.
In the case of `O=c1[nH]c(=S)c2c3c(sc2[nH]1)CCCC3`, the T/C (dose: 75.0 mg/kg/injection, schedule: Q04DX003 (ip), vehicle: saline sonified) is reported as 100 % of control, the T/C (dose: 150.0 mg/kg/injection, schedule: Q04DX003 (ip), vehicle: saline sonified) is reported as 100 % of control and the T/C (dose: 300.0 mg/kg/injection, schedule: Q04DX003 (ip), vehicle: saline sonified) is reported as 100 % of control.
`CC(=O)NS(=O)(=O)c1ccc(NC(=O)c2ccccc2C(=O)O)cc1` was tested, and the T/C (dose: 50.0 mg/kg/injection, schedule: Q04DX003 (ip), vehicle: saline with Tween-80) was 100 % of control, the T/C [4] was 100 % of control and the T/C [5] was 100 % of control.
`COc1cccc2c1cc([N+](=O)[O-])c1c(C(=O)O)cc3c(c12)OCO3` was tested, and the T/C (dose: 1.25 mg/kg/injection, schedule: Q01DX010 (ip), vehicle: water) was 100 % of control, the T/C (dose: 2.5 mg/kg/injection, schedule: Q01DX010 (ip), vehicle: water) was 118 % of control and the T/C (dose: 5.0 mg/kg/injection, schedule: Q01DX010 (ip), vehicle: other) was 86 % of control.
With `COc1cc(/C=N\Nc2ccccc2[N+](=O)[O-])cc(OC)c1OC` the T/C [6] was 95 % of control, the T/C [7] was 104 % of control and the T/C (dose: 400.0 mg/kg/injection, schedule: Q01DX009 (ip), vehicle: saline with Tween-80) was 104 % of control.
For `CC1(c2ccc(Cl)s2)NC(=O)NC1=O` (stereo not drawn), the T/C (dose: 300.0 mg/kg/injection, schedule: Q04DX003 (ip), vehicle: saline with Tween-80) was 100 % of control, the T/C [8] was 98 % of control and the T/C (dose: 600.0 mg/kg/injection, schedule: Q04DX003 (ip), vehicle: saline with Tween-80) was 86 % of control.
For `FC(F)(F)c1nc2nc(Cl)c(Cl)nc2n1CCCN1CCOCC1`, the T/C [4] was 105 % of control, the T/C [5] was 115 % of control and the T/C [8] was 110 % of control.
With `NS(=O)(=O)c1ccc(N=Nc2nc3ncnc(SCc4cccs4)c3[nH]2)cc1` the T/C (dose: 100.0 mg/kg/injection, schedule: Q01DX009 (ip), vehicle: other) was 95 % of control, the T/C [1] was 104 % of control and the T/C (dose: 200.0 mg/kg/injection, schedule: Q01DX009 (ip), vehicle: other) was 118 % of control. For the same compound, the T/C [3] was 104 % of control, the T/C (dose: 400.0 mg/kg/injection, schedule: Q01DX009 (ip), vehicle: other) was 86 % of control and the T/C [2] was 108 % of control.
`CC1(C)CCCC(Cl)(C(Cl)c2ccccc2)C1=O` (stereo not drawn) was tested, and the T/C (dose: 75.0 mg/kg/injection, schedule: Q01DX001 (ip), vehicle: other) was 100 % of control, the T/C (dose: 150.0 mg/kg/injection, schedule: Q01DX001 (ip), vehicle: other) was 95 % of control and the T/C (dose: 300.0 mg/kg/injection, schedule: Q01DX001 (ip), vehicle: other) was 95 % of control.
In the case of `CCc1ccc(NC(=O)c2ccccc2Cl)cc1`, the T/C [4] is reported as 100 % of control, the T/C [5] is reported as 91 % of control and the T/C [8] is reported as 91 % of control.
`COc1ccc(-c2c3c(cc4cc5c(cc24)OCO5)C(=O)OC3)cc1OC` was tested, and the T/C (dose: 0.25 mg/kg/injection, schedule: Q01DX009 (ip), vehicle: saline + alcohol) was 95 % of control, the T/C (dose: 0.5 mg/kg/injection, schedule: Q01DX009 (ip), vehicle: saline + alcohol) was 88 % of control and the T/C (dose: 1.0 mg/kg/injection, schedule: Q01DX009 (ip), vehicle: saline + alcohol) was 95 % of control. The T/C (dose: 1.5 mg/kg/injection, schedule: Q01DX009 (ip), vehicle: saline + alcohol) was 104 % of control, the T/C (dose: 2.0 mg/kg/injection, schedule: Q01DX009 (ip), vehicle: saline + alcohol) was 88 % of control and the T/C (dose: 3.0 mg/kg/injection, schedule: Q01DX009 (ip), vehicle: saline + alcohol) was 93 % of control. The T/C (dose: 4.0 mg/kg/injection, schedule: Q01DX009 (ip), vehicle: saline + alcohol) was 95 % of control, the T/C (dose: 6.0 mg/kg/injection, schedule: Q01DX009 (ip), vehicle: saline + alcohol) was 111 % of control and the T/C (dose: 8.0 mg/kg/injection, schedule: Q01DX009 (ip), vehicle: saline + alcohol) was 104 % of control. The T/C (dose: 12.0 mg/kg/injection, schedule: Q01DX009 (ip), vehicle: saline + alcohol) was 101 % of control, the T/C (dose: 24.0 mg/kg/injection, schedule: Q01DX009 (ip), vehicle: saline + alcohol) was 93 % of control and the T/C (dose: 25.0 mg/kg/injection, schedule: Q01DX009 (ip), vehicle: saline + alcohol) was 94 % of control. For the same compound, the T/C (dose: 50.0 mg/kg/injection, schedule: Q01DX009 (ip), vehicle: saline + alcohol) was 94 % of control, the T/C (dose: 100.0 mg/kg/injection, schedule: Q01DX009 (ip), vehicle: saline + alcohol) was 97 % of control and the T/C (dose: 200.0 mg/kg/injection, schedule: Q01DX009 (ip), vehicle: saline + alcohol) was 86 % of control.
For `CN(C)c1ccc(S(=O)(=O)c2ccc3nc(N)nc(N)c3c2)cc1`, the T/C (dose: 50.0 mg/kg/injection, schedule: Q01DX009 (ip), vehicle: saline with Tween-80) was 97 % of control, the T/C [6] was 91 % of control and the T/C [7] was 88 % of control.
